From publication PMC5680308, “Binding of mycotoxins to proteins involved in neuronal plasticity: a combined in silico/wet investigation” (Scientific Reports, 2017)
Like-named read-outs stand apart in the source and are kept apart here.

Experiments:
[1] = biological target: T1, Human recombinant neuroligin 4-X linked (NLGN4X) (Homo sapiens, UniProt Q8N0W4); assay: biochemical; type: binding; settings: for Kd: read-out: dissociation constant (kD)
[2] = biological target: T1, Human recombinant neuroligin 4-X linked (NLGN4X); assay: Microscale thermophoresis (MST) assay; type: binding
[3] = biological target: T2, human recombinant acetylcholinesterase (AChE) (Homo sapiens, UniProt P22303); assay: Microscale thermophoresis (MST) assay; type: binding
T2 construct: purchased Sigma Aldrich (Milano, Italy)
T2 sequence (P22303 32-614): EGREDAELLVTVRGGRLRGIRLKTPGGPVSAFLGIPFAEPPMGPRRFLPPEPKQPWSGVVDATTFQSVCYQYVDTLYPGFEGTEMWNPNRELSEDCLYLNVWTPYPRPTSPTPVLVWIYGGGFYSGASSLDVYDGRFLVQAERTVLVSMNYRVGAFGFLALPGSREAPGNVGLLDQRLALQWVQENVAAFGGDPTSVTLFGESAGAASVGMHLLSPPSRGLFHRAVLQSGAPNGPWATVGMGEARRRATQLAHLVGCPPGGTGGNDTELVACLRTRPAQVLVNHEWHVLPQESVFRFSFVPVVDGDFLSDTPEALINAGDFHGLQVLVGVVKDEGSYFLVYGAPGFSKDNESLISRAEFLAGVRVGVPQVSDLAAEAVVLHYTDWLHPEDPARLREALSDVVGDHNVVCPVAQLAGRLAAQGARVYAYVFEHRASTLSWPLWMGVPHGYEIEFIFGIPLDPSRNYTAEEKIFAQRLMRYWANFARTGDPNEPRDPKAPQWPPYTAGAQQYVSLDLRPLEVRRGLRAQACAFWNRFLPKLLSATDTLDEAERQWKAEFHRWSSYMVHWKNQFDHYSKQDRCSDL

[4] = biological target: T2, human recombinant acetylcholinesterase (AChE); assay: Fluorescence steady-state binding experiments (intrinsic Trp fluorescence); settings: pH 7.4

T1 sequence (Q8N0W4 42-676 limits assumed): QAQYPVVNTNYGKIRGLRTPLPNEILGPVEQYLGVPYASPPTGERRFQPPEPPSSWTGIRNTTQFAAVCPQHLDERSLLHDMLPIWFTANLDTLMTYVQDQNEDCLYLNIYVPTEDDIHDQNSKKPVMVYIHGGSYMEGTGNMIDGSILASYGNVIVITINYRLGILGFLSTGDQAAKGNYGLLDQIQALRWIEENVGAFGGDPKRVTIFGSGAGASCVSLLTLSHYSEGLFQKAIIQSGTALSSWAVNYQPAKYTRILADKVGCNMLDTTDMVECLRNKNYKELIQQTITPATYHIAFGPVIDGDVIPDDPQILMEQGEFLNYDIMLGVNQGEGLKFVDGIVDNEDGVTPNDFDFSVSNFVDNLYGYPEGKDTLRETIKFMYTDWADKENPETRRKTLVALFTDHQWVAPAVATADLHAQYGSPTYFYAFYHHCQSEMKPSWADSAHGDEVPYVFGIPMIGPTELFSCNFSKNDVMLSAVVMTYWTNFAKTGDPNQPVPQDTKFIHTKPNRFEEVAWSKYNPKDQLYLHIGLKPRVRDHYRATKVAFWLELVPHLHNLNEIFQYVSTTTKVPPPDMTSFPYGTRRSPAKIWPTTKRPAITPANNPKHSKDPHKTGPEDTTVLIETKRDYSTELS

## COc1cc2c(c3oc(=O)c4c(c13)CCC4=O)[C@@H]1CCO[C@@H]1O2 [Aflatoxin B2, aflatoxin B2]
[1]; pH 7.4
  quenching / decrease of the protein fluorescence emission intensity: about 11%
  Kd: 0.0103 µM
[2]; pH 7.4, read-out: kD for the binding site at higher affinity
  Kd: 0.0566 µM
[3]
  interaction with the protein in MST: did not confirm this prediction

## CC1=C[C@H]2O[C@@H]3[C@H](O)C[C@](C)([C@@]2(CO)[C@H](O)C1=O)[C@]31CO1 [Deoxynivalenol, deoxynivalenol]
[1]; pH 7.4
  quenching / decrease of the protein fluorescence emission intensity: 17%

## CN1C(=O)[C@]23CC4=CC=C[C@H](O)[C@H]4N2C(=O)[C@@]1(CO)SS3 [Gliotoxin, gliotoxin]
[1]; Trp fluorescence emission variation, PBS buffer pH 7.4, 25 °C, non-linear regression
  Kd: 0.307 µM
[1]; pH 7.4
  quenching / decrease of the protein fluorescence emission intensity: about 17%
[2]; MST, PBS buffer pH 7.4, 25 °C, read-out: kD
  Kd: 1.52 µM
[3]; result in words, data not shown
  interaction with the protein in MST: did not confirm this prediction

## Aflatoxin B1
[1]
  decrease of the fluorescence emission spectrum at increasing concentrations of the toxin: did not show a significant decrease
[4]
  effect on Trp fluorescence emission at increasing toxin concentration: a quenching effect was registered
[2]; pH 7.4
  interaction with the protein in MST: no evidence of the interaction
[3]; pH 8
  Kd: 8.4 ± 0.694 µM
